“Also recorded” adds a separate entry of the source. Blank lines part the entries; values can stand above or below the compound they belong to. Residues, ends and D or L forms follow the SMILES beside them. No end group written: not given here. *: point of attachment. Fluorescein(5-Mal) = O=C1OC2(c3ccc(O)cc3Oc3cc(O)ccc32)c2ccc(N3C(=O)CC(*)C3=O)cc21
Tests used:
[1] = Fluorescent plate reader assay of quenching of FAM-NP41 fluorescence by food dyes
Source text: (§1) FIGS. 21A-21C: Food dyes efficiently quench FAM-NP41 bladder fluorescence. A fluorescent plate reader assay was used to show dose dependent quenching of FAM-NP41 fluorescence. Erythrosine extra bluish (Santa Cruz Biotechnology, Inc.) was the most efficient quencher with >˜80% quenching at 2.5 times dye to fluorescein ratio and >95% quenching at 5× dye to fluorescein ratio (A). Other food dyes tested included Allura Red and Sunset Yellow. To test for quenching in-vivo we administered, by direct iv injection, 50 mg/kg MW 879.76 (˜1.5 μmoles per 25 gm mouse) to mice that had been injected with 150 nmoles of FAM-NP41 2 hours prior. This represents approximately a 10× dye to FAM-NP41 dose. Some bladder fluorescence remained after imaging so additional dye (30 μl, 10 mM Erythrosin extra bluish) was injected directly into the bladder. […] Dye would likely not be needed if this method was used for human patients as bladder catheterization in patients could be started as FAM-NP41 is administered so bladder fluorescence could be washed out.

[2] = tested on: bladder fluorescence; assay: In-vivo quenching of FAM-NP41 bladder fluorescence; design: species or system mouse; conditions: 50 mg/kg i.v. plus 30 μl 10 mM intra bladder, 150 nmoles FAM-NP41 2 hours prior
Source text: as §1

[3] = tested on: human sural nerve; assay: Topical application of FAM-labelled peptides on sections of human sural nerve and temporalis muscle; assay type: binding; conditions: for effect of truncation on binding and solubility: deletion from C terminus of HNP401; for normalized average signal intensity for nerve binding: normalized to parent FAM-HNP401, topical 100 μM, human sural nerve sections; for nerve binding and nerve to muscle contrast (words): human nerve and temporalis muscle sections
Source text: To determine the affinity of phage selected peptides for binding to human nerve they were chemically synthesized by solid-phase synthesis and labeled with fluorescein at the C-terminus via a GGC linker. Peptides were topically applied to sectioned human sural nerve and human temporalis muscle to determine nerve to muscle contrast. […] To confirm binding and contrast of HNP401 for additional nerve types binding was compared in nerve and muscle with both HNP401 and NP41 on facial brachial plexus nerve (FIG. 9). […] FAM-HNP401 was additionally tested topically on ex-vivo tissue for labeling of mouse facial nerve with surrounding muscle (FIG. 10, J-M).
To test the affinity of selected phage display peptides for binding to human nerves, they were chemically synthesized by solid-phase synthesis and labeled with fluorescein at the C-terminus. Peptides were topically applied to sections of surgically harvested human sural nerve and temporalis muscle to determine nerve to muscle contrast for selected peptides and controls (FIG. 23). […] To quantify differential binding to nerve versus muscle, fluorescence signal intensity was measured for ROIs from the perineurium of select nerves and human temporalis muscle.
To enhance and attempt to determine the core binding domain of HNP401, systematic deletion of two amino acids from the C or N terminus was performed (see, for example, FIG. 30) followed by binding analysis on human sural nerve sections (FIG. 20). In each case nerve binding and signal intensity was normalized to the parent FAM-HNP401 peptide (FIG. 20J).
Image J was used to analyze and compare images acquired using the confocal microscope and the Lumar dissecting scope. For each experimental set where probes were compared, we kept the acquisition parameters identical so as to directly compare the data obtained. […] All raw image files for a given experimental cohort were loaded at the same time into Image J as 16-bit tiff images. We then levelled the image for tissue treated with FAM-HNP401. Once these levels were set, the settings are propagated to all images in one step using Image J. The brightest image is set as the benchmark for all other images in the cohort to avoid saturating when the leveling is propagated.

[4] = tested on: rat prostate cavernosal nerve; assay: In-vivo labelling of rat prostate and sciatic nerve; conditions: i.v., FAM-labelled peptide
Method: FIG. 6: Fluorescent labeling of rat prostate cavernosal nerve in live rats.
Either 150 or 450 nmoles nmoles of fluorescein labeled synthetic peptides were injected intravenously into mice. After a 2 hour waiting period for washout of nonspecific binding, mice were anesthetized and skin incisions were made over the dorsal surface of the hind legs to expose the sciatic nerve. Brightfield and fluorescent images were obtained with a dissecting microscope using Metamorph software (FIG. 1). Quantitation of fluorescence of nerves and adjacent non-nerve tissue was performed with Image J (FIG. 2). Peptides were also topically applied to human nerve sections. […]
Following anesthesia with intra-peritoneal injection of ketamine (80 mg/kg) and midazolam (40 mg/kg), FAM-NP41 or its variants were administered into mice retro-orbitally. […] The autonomic nerve along the cavernosal vessel in the prostate was imaged and recorded using a custom-made surgical imaging system. This system is a modified from Olympus MVX10 scope capable of hi-resolution fluorescence, RGB reflectance and realtime overlay with zoom from 0.6 to 5.7 cm field of view. ImageJ was used for quantitative analysis of nerve contrast for each peptide dye conjugate tested. Images of autonomic nerve in prostate were selected from the recorded files and magnified 300-400% prior to selection of ROI and measurement. […]

[5] = tested on: sciatic nerve; assay: In-vivo fluorescence imaging of sciatic nerve in mice after i.v. injection of FAM-labelled peptides; design: species or system mouse; conditions: 450 nmols i.v.
Method: In-vivo fluorescence image of sciatic nerve of 6 month old SKH1-Elite mice injected i.v. with 450 nmols of FAM-HNP401 (A) or FAM-NP41 (B) and imaged on the Lumar imaging scope 2 h post injection. […] Each mouse was injected i.v. with 100 nmol of FAM-HNP401 prior to blood collection at 1 min, 10 min, 20 min, 30 min, 1 h and 2 h timepoints (H).
In-vivo fluorescence image of sciatic nerves from 6 month old SKH1 mice that had been previously intravenously injected with 450 nmols of FAM-HNP401 [˜48.4 mg/kg] (A) or FAM-NP41 [˜39 mg/kg] (B). […] Each mouse was injected intravenous with 100 nmol [˜11 mg/kg] of FAM-HNP401 prior to blood collection at 1 min, 10 min, 20 min, 30 min, 1 h and 2 h time points.

[6] = Stability of peptides in ex-vivo human plasma (LC-MS); conditions: 37° C., 5 min vs 2 hours
Method: FIGS. 28A-28F: Stability of peptides in ex-vivo human plasma and cerebrospinal fluid from rats. […] An equal volume of 1:1 acetonitrile:water with 2% acetic acid is added to precipitate the protein matter, supernatant is extracted for analysis by LC-MS on a C18 reverse phase column with gradient of 9:1 H2O+0.05% TFA:Acetonitrile+0.05% TFA to 1:9 H2O+0.05% TFA:Acetonitrile+0.05% TFA in 20 min.
The bladder was drained with a syringe and sutured to avoid spillage and contamination around prostate. […] Stability of FAM-HNP401 in human plasma at 5 minutes and 2 hours was determined by incubation of peptide dye conjugate in human serum prior to analysis by mass spectrometry.

[7] = tested on: autonomic nerves isolated from human prostate glands; assay: Topical application on sections of nerves from human prostate gland; assay type: binding; conditions: topical 100 μM, 10 μm sections, two patients
Method: FAM-HNP401 and FAM-NP41 were then tested topically for binding to autonomic nerves, isolated from excised prostate glands of two human patients (FIGS. 12 and 13). […] Labelled fiber were confirmed as nerve using anti-neurofilament antibody SMI312 (red) and DAPI (blue) to show nuclear labeling (FIG. 12C). H&E staining was also done to confirm label tissue as nerve (FIG. 12D). Similar staining was obtained for peripheral sensory anti-brachial cutaneous nerve isolated from a human arm (FIG. 12E-H).
FAM-HNP401 and FAM-NP41 were tested for binding to autonomic nerves, isolated from the prostate glands of two human patients (FIGS. 19 and 29). […] Quantitation was not done because only 2 patient samples were available for testing as nerve resection during radical prostatectomy is only performed in instances of gross capsular invasion. Labelled fibers were confirmed as nerve using anti-neurofilament antibody SMI312 (red) with DAPI (blue) to show nuclear labeling (FIG. 19C). H&E staining also confirmed label tissue as nerve by histology (FIG. 19D). […] Similar staining using FAM-HNP401 was obtained for another sensory nerve (anti-brachial cutaneous) isolated from human arm showing the broad nerve binding activity of HNP401 (FIGS. 19E-H).

[8] = tested on: mouse facial nerve; assay: Topical application on ex-vivo mouse facial nerve with surrounding muscle; assay type: binding; conditions: topical 375 and 100 μM, ex-vivo tissue
[9] = Mass spectroscopy analysis of urine after injection of nerve binding peptides
[10] = tested on: human laryngeal nerve sections; assay: Dose response of FAM-HNP401 by topical application on human nerve sections, confocal; conditions: low concentration (10 μM)
Method: Determination of optimal dose response by topical application of FAM-HNP401 on human laryngeal nerve sections at final concentration of 375 μM (A), 100 μM (B), 50 μM (C), 10 μM (D) and 1 μM (E), imaged with confocal microscopy with identical parameters and levelled equally for comparison. **brightened 2 fold for viewing.
Dose response data set of FAM-HNP401 on human nerve tissue (FIGS. 25:A-E) was acquired with 488 nm laser line, 10 μm sections on glass at 10× magnification, 0.45 NA air objective lens. Gain set to 40, power set to 3% of laser power, pixel dwell value of 1.2 μs, aperture size of 1.1 μm and a pixel size of 0.3 μm/px with a 2 k by 2 k size image.
Human peripheral nerves (typically sural) were obtained from patients undergoing nerve resection procedures. Human nerves from prostate gland of two patients were acquired under Moores Cancer Centre Biorepository IRB protocol number 090401. Tissue were sectioned and mounted on glass slides or Cryojane tape. Tissue sections were placed in a humidifier chamber for 30 min before application of the peptide solution. Peptides were diluted to appropriate concentration in 0.5×HBSS prior to topical application. 50 μl of peptide solution of with known concentration (1 μM to 375 μM) were applied to 10 μm nerve sections on tape or slides and incubated for 30 minutes in a humidifier chamber. After incubation with peptide nerve sections were washed with twice with 0.5×HBSS and once with 1×PBS. A cover-slip was applied and slides were imaged immediately on either a Zeiss Lumar dissecting scope of Nikon A1 confocal microscope. For confocal imaging tissue sections of 10 μm thickness were imaged with 488 nm laser excitation 515 (25) and a 10× air objective and a 0.26 µm/pixel size.

Compound: O=C1OC2(c3ccccc31)c1cc(I)c(O)c(I)c1Oc1c2cc(I)c(O)c1I [Erythrosine extra bluish]
- quenching of FAM-NP41 fluorescence ([1]; 2.5 times dye to fluorescein ratio): > 80%
- quenching of FAM-NP41 fluorescence ([1]; 5× dye to fluorescein ratio): > 95%
- bladder fluorescence after quencher [2]: near background level

Compound: Ac-SGQVPWEEPYYVVGGC [HNP401-C-4, with GGC linker, tested FAM labelled]
- effect of truncation on binding and solubility [3]: reduced dramatically
- normalized average signal intensity for nerve binding [3]: 0.49±0.11

Compound: SEFPRSWDMETN [HNP301]
- fluorescent labeling of rat prostate and sciatic nerve in live rats [4]: not showing as much contrast

Compound: CC(=O)N[C@@H](CO)C(=O)NCC(=O)N[C@@H](CCC(N)=O)C(=O)N[C@H](C(=O)N1CCC[C@H]1C(=O)N[C@@H](Cc1c[nH]c2ccccc12)C(=O)N[C@@H](CCC(=O)O)C(=O)N[C@@H](CCC(=O)O)C(=O)N1CCC[C@H]1C(=O)N[C@@H](Cc1ccc(O)cc1)C(=O)N[C@@H](Cc1ccc(O)cc1)C(=O)N[C@H](C(=O)N[C@H](C(=O)N[C@@H](CCCCN)C(=O)N[C@@H](CCCCN)C(=O)N[C@@H](CO)C(=O)N[C@@H](CO)C(=O)NCC(=O)NCC(=O)N[C@@H](CSC1CC(=O)N(c2ccc3c(c2)C(=O)OC32c3ccc(O)cc3Oc3cc(O)ccc32)C1=O)C(N)=O)C(C)C)C(C)C)C(C)C (stereo partly shown) [FAM-HNP401] (Ac-SGQVPWEEPYYVVKKSSGGC(Fluorescein(5-Mal))-NH2)
- nerve to surrounding muscle contrast ([5]; imaged 2 h post injection, SKH1 mice): 5.79±0.81
- increase in sciatic nerve fluorescence intensity compared to NP41 ([5]; mice): 2.3 fold
- signal intensity for in-vivo binding to mouse sciatic nerve compared to FAM-NP41 ([5]; mice): 2.3 ×
- nerve to muscle contrast ([3]; human sural nerve vs temporalis muscle, topical 100 μM, n=4): 3.03±0.57
- fluorescent signal intensity of perineurium ([3]; topical 100 μM, 10 μm unfixed sections, confocal, n=4): 1374.44±425.96
- nerve binding and nerve to muscle contrast (words) ([3]; topical 100 μM): highest contrast
- fluorescent signal intensity compared to FAM-NP41 ([3]; topical 100 μM, human sural nerve): 10.9 ×
- signal for binding human nerve compared to FAM-NP41 ([3]; topical, human nerve): 10 fold
- stability in human plasma [6]: remain intact; also recorded: stable
- fluorescent signal in human autonomic (cavernosal) nerves compared to FAM-NP41 [7]: significantly higher fluorescent signal
- labeling of mouse facial nerve versus surrounding muscle [8]: poor contrast; also recorded: did not perform as well as FAM-NP41
- fluorescent labeling of rat prostate and sciatic nerve in live rats [4]: highlighted
- metabolism of peptide detected in urine [9]: partially metabolized
- structures of nerve bound (confocal imaging) [10]: binding of peptide to non-axonal structural components of nerve; also recorded: excluded from axons
- structures of nerve bound (confocal imaging) ([10]; listed as FAM-HMP401): does not bind axons, but preferentially binds the perineurium
- structures of nerve bound (confocal imaging) ([10]; listed as HNP401-FAM): binds epineurium, perineurium and endonerium but not axons

Compound: Ac-SGQVPWEEPYYVVKKGGC [HNP401-C-2, with GGC linker, tested FAM labelled]
- effect of truncation on binding and solubility [3]: tolerated

- nerve binding and nerve to muscle contrast (words) ([3]; topical 100 μM): only weak non-specific binding
- nerve binding and nerve to muscle contrast (words) ([3]; topical 100 μM, listed as Carboxyfluorescein): low signal and non-specific binding
Compound: carboxyfluorescein [reference compound]

Compound: Ac-QVPWEEPYYVVKKSSGGC [HNP401-N-2, with GGC linker, tested FAM labelled]
- normalized nerve to temporalis muscle contrast, increase with respect to FAM-HNP401 ([3]; human sural nerve vs temporalis muscle): 3 fold
- normalized average signal intensity for nerve binding [3]: 2.02±0.65
- average signal intensity, nerve binding of deletion variants ([3]; topical 100 uM FAM labelled, human nerve sections, n=5): 1498.73 (+/−517.63)

- normalized average signal intensity for nerve binding [3]: 1.0±0.34
Compound: Ac-EEPYYVVKKSSGGC [HNP401-N-6, with GGC linker, tested FAM labelled]

- normalized average signal intensity for nerve binding [3]: 0.56±0.18
Compound: Ac-PWEEPYYVVKKSSGGC [HNP401-N-4, with GGC linker, tested FAM labelled]

- normalized average signal intensity for nerve binding [3]: 0.98±0.31
Compound: Ac-PYYVVKKSSGGC [HNP401-N-8, with GGC linker, tested FAM labelled]

From patent US12533425B2, “Methods and systems using peptides for targeting and mapping human nerves in image guided surgery, diagnostics and therapeutic delivery” (ALUME BIOSCIENCES, INC., priority 2019, dated 2026)
